Like-named read-outs stand apart in the source and are kept apart here.
Key:
serotonergic receptors [1] = biological target: T1, serotonergic receptors (Rattus norvegicus, UniProt P14842); assay: in vitro binding profile to serotonergic receptors (Table 3); conditions: rat cerebral cortical membranes, ligand [3H]ketanserin; read-out: 5HT2A binding
T1 construct: other: rat cerebral cortical membranes, ligand [3H]ketanserin
From the text: (§1) The new 2,3-benzodiazepine atypical antipsychotic agents of formula (I) of the present invention influence dopaminergic neurotransmission by a unique indirect fashion, differently from both the first and second generation antipsychotics. The in vitro binding profile of these compounds (Table 3) differs from that of the first generation antipsychotics which bind to dopaminergic receptors and second generation antipsychotics, representatives of which show affinity for dopaminergic, serotonergic, or adrenergic receptors.

serotonergic receptors [2] = biological target: T2, serotonergic receptors (Rattus norvegicus, UniProt P19327); assay: as above; conditions: rat hippocampal membranes, ligand [3H]-8-OH-DPAT; read-out: 5HT1A binding
T2 construct: other: rat hippocampal membranes, ligand [3H]-8-OH-DPAT
T2 sequence (P19327 1-422): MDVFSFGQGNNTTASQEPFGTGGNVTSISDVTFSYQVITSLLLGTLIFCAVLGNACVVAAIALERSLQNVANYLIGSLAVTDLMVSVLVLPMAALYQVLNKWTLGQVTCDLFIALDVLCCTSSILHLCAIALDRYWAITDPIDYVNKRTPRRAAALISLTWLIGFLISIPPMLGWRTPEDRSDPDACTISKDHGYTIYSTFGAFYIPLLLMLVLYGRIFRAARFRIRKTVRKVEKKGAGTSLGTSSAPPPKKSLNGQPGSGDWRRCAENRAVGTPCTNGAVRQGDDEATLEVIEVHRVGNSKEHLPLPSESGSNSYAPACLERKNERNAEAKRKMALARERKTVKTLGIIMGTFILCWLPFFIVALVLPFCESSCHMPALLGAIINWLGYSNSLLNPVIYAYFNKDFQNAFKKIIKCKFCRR
From the text: as §1

adrenergic receptors [3] = biological target: T3, adrenergic receptors; assay: in vitro binding profile to adrenergic receptors (Table 3); conditions: rat cerebral cortical membranes, ligand [3H]prazosin; read-out: α1 binding
T3 construct: other: rat cerebral cortical membranes, ligand [3H]prazosin
From the text: as §1

adrenergic receptors [4] = biological target: T4, adrenergic receptors; assay: as above; conditions: rat cerebral cortical membranes, ligand [3H]yohimbine; read-out: α2 binding
T4 construct: other: rat cerebral cortical membranes, ligand [3H]yohimbine
From the text: as §1

Adenosine transporter = assay: in vitro inhibition, adenosine transporter; assay type: binding; conditions: conc: 10 μM
[5] = tested on: apomorphine-induced climbing; assay: apomorphine-induced climbing test in mice; assay type: in vivo, CD1 mice; conditions: Mus musculus, read-out: Climbing ED50 (mg/kg ip.)
Description: Anti-apomorphine effects were investigated in the climbing test in mice mediated through the mesolimbic and stereotypy test in rats mediated through the nigrostriatal system. Conventional antipsychotics antagonize both apomorphine-induced behaviours, while known atypical antipsychotics are weaker against apomorphine stereotypy.
The climbing test was carried out according to Protais et al. (Protais, P. et al. Psychopharmacologia, 1976, 50, 1.) Stereotyped behavior was induced in food deprived (for 16 hours) male CD1 mice weighing 20-25 g body by apomorphine HCl (SIGMA) in a s.c. dose of 2 mg/kg. Mice were placed individually into cylinders having 12 cm diameter and consisting of vertical bars of 2 mm diameter where apomorphine treated animals tended to adopt a vertical position in contrary to vehicle treated controls. Test substances were applied ip. 30 min before apomorphine.
10 and 20 min after apomorphine treatment the climbing behaviour was evaluated by scores of 0-2. 10 mice/group were used. The scores of the two readings were summed individually, meaned and compared to the control. The ED50 values were calculated by Litchfield-Wilcoxon's method (Litchfield Jr. J. T., Wilcoxon, F. J. Pharmacol. Exp. Ther. 1949, 96, 49,).

catalepsy = catalepsy test in rats; assay type: in vivo, CDBR rats; conditions: sum of 8 readings over 4 hours
From the text: In order to investigate the potential side effect profile, the catalepsy test in rats has been carried out according to Costall and Naylor (Costall, B., Naylor, R. J. Arzneimittelforschung/Drug Res., 1973, 23, 674).
Catalepsy is defined as a failure to correct an externally imposed, unusual posture over a prolonged time. Neuroleptics which have direct inhibitory action on the nigrostriatal dopamine system induce catalepsy. It may be reflected by the Parkinson-like extrapyramidal symptoms seen clinically with administration of classical antipsychotics. The experiments were carried out in male CDBR rats weighing 300-400 g. The volume of administration was 0.25 ml/100 g body weight. The animals were starved for 16 hours before treatment, water was delivered ad libitum. After intraperitoneal administration of the test substances, the forepaws of the rats were placed on a horizontal stainless steel bar elevated to 10 cm high, while the hind paws remained on a metal plate. The semi-automatic 5-channel catalepsy meter measured the time spent in this unusual posture by an electronic stop-clock. The catalepsy time was scored from 0 to 5 according to the time spent in the unusual posture. […] Means of groups were calculated.

[6] = tested on: PCP-induced hypermotility; assay: PCP-induced hypermotility (motor activity meter) in mice; assay type: in vivo; conditions: Mus musculus, read-out: PCP-hypermotility ED50 mg/kg po.
From the text: Alterations in the mesocortical dopaminergic tract are thought to be responsible for the negative symptoms of schizophrenia (flattening of affect, poverty of speech, lack of volition and drive, loss of feeling, social withdrawal and decreased spontaneous movement). The best animal model of these symptoms is the behavioral changes induced by PCP (phencyclidine). The PCP-induced stereotypy and hypermotility was investigated in mice according to Ljungberg and Ungerstedt (Ljungberg, T., Ungerstedt, U. Pharmacol. Biochem. Behav., 1985, 23, 479,) and Jawitt (Jawitt, D. C. Amer. J. Psychiatry, 1991, 145, 1301). The stereotypy experiments were carried out in male CD1 mice weighing 20-25 g. The animals were starved for 16 hours before treatment without limitation of water availability. In the stereotypy studies, 30 min before treatment, mice were individually placed into small, transparent acrylic cages for habituation. Test substances were administered orally in a volume of 0.1 ml/10 g. 30 min later mice were treated with PCP with an intraperitoneal dose of 7 mg/kg. Stereotyped behavior was observed every 5th min for 60 min and scored from 0 to 4. The scores were summed individually, averaged and compared to the control group.
The motor activity was measured in a 4-channel activity meter. The apparatus consisted of acrylic cages (40×40×32 cm) equipped with 16 pairs of infrared photocells. The photocells' beam, when broken, signaled a count, which was then recorded by a computer. A 5 mg/kg intraperitoneal dose of PCP was administered 5 min before the experiment. This dose of PCP induces 110-120% increase of the spontaneous motor activity. Test substances were administered orally 15 min before experiment, and mice were investigated individually in the experimental cages for 60 min. 10 mice/group were used. The total counts for each experimental group were compared to the vehicle treated control group.
In both studies the ED50 values were calculated by the Litchfield-Wilcoxon's method (J. Pharmacol. Exp. Ther. 1949, 96, 49).

[7] = mice, ip. 30 min before apomorphine 2 mg/kg s.c.
[8] = mice, po. 15 min before experiment, PCP 5 mg/kg ip

T1 sequence (P14842 whole entry): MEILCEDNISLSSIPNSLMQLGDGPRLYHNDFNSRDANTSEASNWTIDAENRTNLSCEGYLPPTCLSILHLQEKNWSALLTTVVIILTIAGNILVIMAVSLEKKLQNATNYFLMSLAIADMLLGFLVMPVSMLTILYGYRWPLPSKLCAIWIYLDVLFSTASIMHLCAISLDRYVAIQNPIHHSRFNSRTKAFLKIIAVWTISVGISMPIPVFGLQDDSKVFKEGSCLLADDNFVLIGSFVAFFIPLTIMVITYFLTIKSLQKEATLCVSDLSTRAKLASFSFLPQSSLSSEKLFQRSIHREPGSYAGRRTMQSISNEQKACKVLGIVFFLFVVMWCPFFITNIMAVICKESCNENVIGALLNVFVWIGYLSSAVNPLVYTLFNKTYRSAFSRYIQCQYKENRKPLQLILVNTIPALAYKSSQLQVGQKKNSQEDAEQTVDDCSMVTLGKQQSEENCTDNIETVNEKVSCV

| SMILES | Ki (serotonergic receptors [1]) [µM] | Ki (serotonergic receptors [2]) [µM] | Ki (adrenergic receptors [3]) [µM] | Ki (adrenergic receptors [4]) [µM] | Inhibition in %, Adenosine transporter (Adenosine transporter) [%] | ED50 [5] [mg/kg] | Catalapsy scores (catalepsy; dose 10 mg/kg ip) | ED50 [6] [mg/kg] | Catalapsy scores (catalepsy; dose 40 mg/kg ip) | ED50 [5, 7] [mg/kg] | ED50 [6, 8] [mg/kg] |
| --- | --- | --- | --- | --- | --- | --- | --- | --- | --- | --- | --- |
| CNC(=O)N1N=C(c2ccc(N)cc2)c2cc(OC)c(OC)cc2C[C@H]1C [Example 121] | > 10 | > 10 | > 10 | > 10 | 87 | 4.31 | 10:0 | 0.87 | – | – | – |
| CNC(=O)N1N=C(c2ccc(N)c(C)c2)c2cc(OC)c(OC)cc2C[C@H]1C [Example 123] | > 10 | > 10 | > 10 | > 10 | 90 | 9.2 | – | 0.62 | 40:0 | – | – |
| COc1cc2c(cc1OC)C(c1ccc(N)c(C)c1)=NN(c1nncs1)[C@H](C)C2 [Example 110] | > 10 | > 10 | > 10 | > 10 | 94 | – | 10:0.375 | – | – | 14.6 | 1.4 |
| COc1cc2c(cc1OC)C(c1ccc(N)c(C)c1)=NN(c1ncon1)[C@H](C)C2 [Example 104] | > 10 | > 10 | > 10 | > 10 | 96 | – | – | – | 40:0 | 7.7 | 0.73 |

— US20080269202A1, “Novel 2,3-benzodiazepine derivatives and their use as antipsychotic agents” (Teva Pharmaceutical Industries Ltd., priority 2007, published 2008)
